This note sets out measurements from ChEMBL document CHEMBL4828764, “Lead Optimization and Structure-Activity Relationship Studies on Myeloid Ecotropic Viral Integration Site 1 Inhibitor” (J Med Chem, 2021).

Calls of active or inactive are those of the source. The rule behind the calls is not given here.

Type in all cases: cell-based
The target of data set [1] is T1, Homeobox protein Meis1 (Homo sapiens) (UniProt O00470).
T1 sequence (whole entry): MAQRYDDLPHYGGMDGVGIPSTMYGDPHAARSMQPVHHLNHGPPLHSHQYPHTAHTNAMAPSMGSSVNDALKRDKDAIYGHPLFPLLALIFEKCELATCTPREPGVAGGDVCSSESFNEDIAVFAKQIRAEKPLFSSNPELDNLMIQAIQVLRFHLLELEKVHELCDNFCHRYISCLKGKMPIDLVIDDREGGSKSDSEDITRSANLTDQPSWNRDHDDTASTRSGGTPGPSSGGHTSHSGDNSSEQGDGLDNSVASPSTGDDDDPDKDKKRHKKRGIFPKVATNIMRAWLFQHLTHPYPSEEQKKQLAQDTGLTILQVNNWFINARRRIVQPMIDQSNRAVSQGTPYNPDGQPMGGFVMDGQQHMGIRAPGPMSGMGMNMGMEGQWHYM
In words: Inhibition of MEIS1 (unknown origin) expressed in HEK293T cells co-expressing MEIS-Luc-pGL2 assessed as luciferase activity at 10 uM incubated for 48 hrs by luciferase reporter assay related to […] control. Also on record: scale not given: the % may be the effect or the level left. For orientation: A reporter such as luciferase makes a cellular process visible.

In data set [2] the target is T1, Homeobox protein Meis1 (Homo sapiens). The experiment in a line: Inhibition of MEIS1 (unknown origin) expressed in HEK293T cells co-expressing MEIS-Luc-pGL2 assessed as luciferase activity at 10 uM incubated for 48 hrs by luciferase reporter assay related to protein content. Also on record: scale not given: the % may be the effect or the level left.
Data set [3] shares this target. The experiment in a line: Inhibition of MEIS1 (unknown origin) expressed in HEK293T cells co-expressing MEIS-Luc-pGL2 assessed as downregulation of p21 gene expression by measuring mRNA level at 10 uM incubated for 2 days by RT-qPCR analysis. Also on record: scale not given: the % may be the effect or the level left. The conditions noted are these: time 2.0 day. For orientation: In qPCR the cycle at which signal appears reflects the starting amount.

Data set [4] can be described thus: Cytotoxicity against HDF assessed as cell viability at 10 uM incubated for 72 hrs by MTS assay. As to conditions: human, HDF (NHDF) cells, read-out: Activity. Background: Tetrazolium assays rely on reduction of a dye to a coloured formazan, in cell work by metabolically active cells.
The target of data set [5] is T1, Homeobox protein Meis1 (Homo sapiens). The experiment in a line: Inhibition of MEIS1 (unknown origin) expressed in HEK293T cells co-expressing MEIS-Luc-pGL2 assessed as downregulation of Meis1 gene expression measuring mRNA level at 10 uM incubated for 2 days by RT-qPCR analysis. Also on record: scale not given: the % may be the effect or the level left. As to conditions: time 2.0 day.

The target is the same in data set [6]. In words: Inhibition of MEIS1 (unknown origin) expressed in HEK293T cells co-expressing MEIS-Luc-pGL2 assessed as downregulation of Hif-Ialpha gene expression measuring mRNA level at 10 uM incubated for 2 days by RT-qPCR analysis. As to conditions: time 2.0 day.

On to `COc1ccc(CNC(=O)COc2ccc(C(=O)Nc3ccccc3)cc2)cc1`, for which the Activity in data set [1] and in data set [2] was 43% throughout.
As for `COc1ccc(CNC(=O)COc2ccc(C(=O)Nc3ccc(OC)c(OC)c3)cc2)cc1`, the Activity worked out at 70% in data set [1] and 63% in data set [2].
For `Cc1ccc(CNC(=O)COc2ccc(C(=O)Nc3cccc(C)c3C)cc2)cc1`, in that order: 51% and 48%.
For `Cc1cccc(C)c1NC(=O)c1ccc(OCC(=O)NCc2ccccc2Cl)cc1`, in that order: 58% and 53%.
With `Cc1cccc(NC(=O)c2ccc(OCC(=O)NCc3ccc(F)cc3)cc2)c1C`, the Activity is 25.6% in data set [3], 36% in data set [1], 24.3% in data set [5] and 40% in data set [2]. Also, the viability at 72 h, 10 µM in data set [4] worked out at 90.4%. For the same compound, the outcome in data set [6] was Active.
With `CCc1cccc(NC(=O)c2ccc(OCC(=O)NCc3ccc(OC)cc3)cc2)c1`, the Activity in data set [1] and in data set [2] was 51% each time.
`O=C(COc1ccc(C(=O)Nc2ccccc2F)cc1)NCc1ccc(Cl)cc1`: the Activity in data set [1] was found to be 40%; in data set [2], 65%.
On to `COc1ccc(CNC(=O)COc2ccc(C(=O)Nc3cccc(C(F)(F)F)c3)cc2)cc1`, for which the Activity in data set [3] was found to be 49.5%; in data set [1], 1%; in data set [5], 15.1%; in data set [2], 1%. For the same compound, the viability at 72 h, 10 µM in data set [4] stood at 76%. Also, the result in data set [6] was Active.
In the case of `COc1ccc(CNC(=O)COc2ccc(C(=O)Nc3cccc(Cl)c3)cc2)cc1`, the Activity in data set [3] was determined as 12.7%; in data set [1], 5%; in data set [5] it was 5.9%; in data set [2], 5%. Further, the viability at 72 h, 10 µM in data set [4] was 90%. In addition, the outcome in data set [6] was Active.
For `COc1ccc(CNC(=O)COc2ccc(C(=O)Nc3cc(C(F)(F)F)ccc3F)cc2)cc1`, the Activity in data set [3] came to 5.2%; in data set [1], 30%; in data set [5], 6.6%; in data set [2], 28%. The viability at 72 h, 10 µM in data set [4] was determined as 105%. Moreover, in data set [6], the result was Active.
Consider `O=C(COc1ccc(C(=O)Nc2cccc(C(F)(F)F)c2)cc1)NCc1ccccc1Cl`, for which the values for the Activity in data set [1] and in data set [2] were 57% and 64%, respectively.
For `COc1ccc(CNC(=O)COc2ccc(C(=O)Nc3ccccc3F)cc2)cc1`, in that order: 70% and 66%.
For `COc1ccc(CNC(=O)COc2ccc(C(=O)Nc3c(C)cccc3C)cc2)cc1`, the Activity in data set [1] was determined as 62%; in data set [2] it was 58%.
For `COc1ccc(CNC(=O)COc2ccc(C(=O)Nc3ccc(Oc4ccc(Br)cc4)cc3)cc2)cc1`, in that order: 45% and 37%.
For `O=C(COc1ccc(C(=O)Nc2ccc(Oc3ccc(Br)cc3)cc2)cc1)NCc1ccc(Cl)cc1`, in that order: 42% and 72%.
For `O=C(COc1ccc(C(=O)Nc2ccc(F)cc2)cc1)NCc1ccccc1Cl`, in that order: 50% and 51%.
Take `Cc1cccc(NC(=O)c2ccc(OCC(=O)NCc3ccc(C(F)(F)F)cc3)cc2)c1C`: the Activity in data set [1] was found to be 81%; in data set [2], 26%.
For `Cc1cccc(NC(=O)c2ccc(OCC(=O)NCc3ccc4c(c3)OCO4)cc2)c1C`, in that order: 54% and 52%.
For `Cc1cccc(NC(=O)c2ccc(OCC(=O)NCc3ccc([N+](=O)[O-])cc3)cc2)c1C`, in that order: 144% and 23%.
For `Cc1cccc(NC(=O)c2ccc(OCC(=O)NCc3cccc(C(F)(F)F)c3)cc2)c1C`, in that order: 106% and 57%.
As for `Cc1cccc(NC(=O)c2ccc(OCC(=O)NCc3cccc(Cl)c3Cl)cc2)c1C`, the figures for the Activity in data set [1] and in data set [2] were 161% and 48%, respectively.
As to `O=C(COc1ccc(C(=O)Nc2cccc(C(F)(F)F)c2)cc1)NCc1ccc(Cl)cc1`, the Activity is 44% in data set [1] and 46% in data set [2].
Take `O=C(COc1ccc(C(=O)Nc2ccc(Oc3ccc(Br)cc3)cc2)cc1)NCc1ccccc1Cl`: the Activity in data set [1] and in data set [2] was 82% each time.
As to `Cc1cccc(NC(=O)c2ccc(OCC(=O)NCc3ccc(Cl)c(Cl)c3)cc2)c1C`, the Activity in data set [1] amounted to 47%; in data set [2] it was 57%.
Take `CCc1ccccc1NC(=O)c1ccc(OCC(=O)NCc2ccc(OC)cc2)cc1`: the Activity in data set [3] was 8.5%; in data set [1], 20%; in data set [5], 8.3%; in data set [2] it was 19%. Moreover, the viability at 72 h, 10 µM in data set [4] is 78%. Moreover, in data set [6], the result was Active.
Turning to `COc1ccc(CNC(=O)COc2ccc(C(=O)Nc3cccc(C)c3C)cc2)c(OC)c1`, the Activity worked out at 17% in data set [1] and 50% in data set [2].
Consider `O=C(COc1ccc(C(=O)Nc2ccc(F)cc2)cc1)NCc1ccc(Cl)cc1`, for which the Activity was 43% in data set [1] and 69% in data set [2].
For `O=C(COc1ccc(C(=O)Nc2cccc(Cl)c2)cc1)NCc1ccccc1Cl`, in that order: 96% and 88%.
With `COc1ccc(CNC(=O)COc2ccc(C(=O)Nc3cccc(C)c3C)cc2)cc1`, the Activity in data set [3] turned out to be 15.7%; in data set [1], 48%; in data set [5], 14.3%; in data set [2], 50.6%. The viability at 72 h, 10 µM in data set [4] was found to be 86.3%. For the same compound, the result in data set [6] was Active.
Consider `Cc1cccc(NC(=O)c2ccc(OCC(=O)NCc3ccccc3)cc2)c1C`, for which the Activity in data set [3] amounted to 17.8%; in data set [1], 69%; in data set [5] it was 12%; in data set [2] it was 66%.
Consider `COc1ccc(CNC(=O)COc2ccc(C(=O)Nc3ccc(F)cc3)cc2)cc1`, for which the Activity stood at 20.3% in data set [3], 31% in data set [1], 7.5% in data set [5] and 25% in data set [2]. Besides, the viability at 72 h, 10 µM in data set [4] stood at 86.2%. Further, the result in data set [6] was Active.
As to `Cc1cccc(NC(=O)c2ccc(OCC(=O)NCc3ccc(Cl)cc3)cc2)c1C`, the Activity in data set [3] came to 47.4%; in data set [1], 34%; in data set [5], 35.9%; in data set [2], 38%. Moreover, the viability at 72 h, 10 µM in data set [4] came to 73.5%. The outcome in data set [6] was Active.
As for `COc1ccc(NC(=O)c2ccc(OCC(=O)NCc3ccc(Cl)cc3)cc2)cc1OC`, the results for the Activity in data set [1] and in data set [2] were 45% and 56%, respectively.
As for `CCc1cccc(NC(=O)c2ccc(OCC(=O)NCc3ccc(Cl)cc3)cc2)c1`, the Activity in data set [1] was 49%; in data set [2] it was 69%.
Take `COc1ccc(NC(=O)c2ccc(OCC(=O)NCc3ccccc3Cl)cc2)cc1OC`: the results for the Activity in data set [1] and in data set [2] were 82% and 80%, respectively.
In the case of `COc1ccc(CNC(=O)COc2ccc(C(=O)Nc3cccc(C)c3C)cc2)cc1OC`, the Activity was 21.7% in data set [3], 35% in data set [1], 9.5% in data set [5] and 49% in data set [2]. Also, the viability at 72 h, 10 µM in data set [4] worked out at 83.9%. The result in data set [6] was Active.
For `Cc1cccc(C)c1NC(=O)c1ccc(OCC(=O)NCc2ccc(Cl)cc2)cc1`, the Activity in data set [1] worked out at 55%; in data set [2] it was 77%.
Consider `O=C(COc1ccc(C(=O)Nc2ccccc2F)cc1)NCc1ccccc1Cl`, for which the values for the Activity in data set [1] and in data set [2] were 62% and 64%, respectively.
With `O=C(COc1ccc(C(=O)Nc2ccccc2)cc1)NCc1ccc(Cl)cc1`, the Activity in data set [1] stood at 75%; in data set [2], 83%.
In the case of `O=C(COc1ccc(C(=O)Nc2cccc(Cl)c2)cc1)NCc1ccc(Cl)cc1`, the Activity in data set [3] came to 19.7%; in data set [1], 32%; in data set [5], 4.5%; in data set [2] it was 51%. Also, the viability at 72 h, 10 µM in data set [4] worked out at 86.4%. Besides, in data set [6], the outcome was Active.
For the compound `O=C(COc1ccc(C(=O)Nc2ccccc2)cc1)NCc1ccccc1Cl`, the Activity in data set [1] came out at 48%; in data set [2], 54%.
Consider `CCc1cccc(NC(=O)c2ccc(OCC(=O)NCc3ccccc3Cl)cc2)c1`, for which the Activity in data set [1] amounted to 41%; in data set [2], 42%.
For `CCc1ccccc1NC(=O)c1ccc(OCC(=O)NCc2ccccc2Cl)cc1`, in that order: 66% and 63%.
Take `Cc1cccc(NC(=O)c2ccc(OCC(=O)NCc3ccc(Cl)cc3Cl)cc2)c1C`: the Activity in data set [1] was determined as 61%; in data set [2], 52%.
